In publication PMC5218480 (PLoS ONE, 2017):

System: MV-4-11 cells
Experiment: Gene expression microarray analysis (Affymetrix PrimeView) and GSEA
Assay type: cell-based, human
Set-up: RFU PODN (11730768_x_at) / Fold change /veh PODN (11730768_x_at) / RFU LINC00158 (11744669_a_at) / Fold change /veh LINC00158 (11744669_a_at) / RFU DUSP10 (11751237_a_at) / Fold change /veh DUSP10 (11751237_a_at) / RFU ID3 (11757404_x_at) / Fold change /veh ID3 (11757404_x_at) / RFU PLEKHG5 (11737974_s_at) / Fold change /veh PLEKHG5 (11737974_s_at) / RFU LRRC4B (11730491_at) / Fold change /veh LRRC4B (11730491_at) / RFU GIMAP4 (11747438_a_at) / Fold change /veh GIMAP4 (11747438_a_at) / RFU KRT8 (11758183_x_at) / Fold change /veh KRT8 (11758183_x_at) / RFU CNN1 (11734310_a_at) / Fold change /veh CNN1 (11734310_a_at) / RFU VPS37D (11726825_at) / Fold change /veh VPS37D (11726825_at) / RFU C10orf10 (11716522_x_at) / Fold change /veh C10orf10 (11716522_x_at) / RFU KIR2DL2 /// KIR2DL4 /// KIR2DL5A /// KIR2DL5B /// KIR2DS1 /// KIR2DS2 /// KIR2DS3 /// KIR2DS4 /// KIR3DL3 /// KIR3DL3 /// KIR3DS1 (11738374_at) / Fold change /veh KIR2DL2 /// KIR2DL4 /// KIR2DL5A /// KIR2DL5B /// KIR2DS1 /// KIR2DS2 /// KIR2DS3 /// KIR2DS4 /// KIR3DL3 /// KIR3DL3 /// KIR3DS1 (11738374_at) / RFU C1QL1 (11718748_at) / Fold change /veh C1QL1 (11718748_at) / RFU TMPRSS4 (11747572_a_at) / Fold change /veh TMPRSS4 (11747572_a_at) / RFU HAMP (11756126_x_at) / Fold change /veh HAMP (11756126_x_at) / RFU RNFT2 (11725882_a_at) / Fold change /veh RNFT2 (11725882_a_at) / RFU NR4A2 (11747474_a_at) / Fold change /veh NR4A2 (11747474_a_at) / RFU ABCC12 (11746883_a_at) / Fold change /veh ABCC12 (11746883_a_at) / RFU TMEM136 (11760407_x_at) / Fold change /veh TMEM136 (11760407_x_at) / RFU CLDN22 /// WWC2 (11732394_at) / Fold change /veh CLDN22 /// WWC2 (11732394_at) / RFU HLA-DPB1 (11760878_x_at) / Fold change /veh HLA-DPB1 (11760878_x_at) / RFU SPINT1 (11716480_a_at) / Fold change /veh SPINT1 (11716480_a_at) / RFU GAP43 (11754022_s_at) / Fold change /veh GAP43 (11754022_s_at) / RFU A4GNT (11735810_at) / Fold change /veh A4GNT (11735810_at) / RFU PRB3 (11715151_x_at) / Fold change /veh PRB3 (11715151_x_at) / RFU TUBB4B (11761932_at) / Fold change /veh TUBB4B (11761932_at) / RFU CAPN14 (11732068_a_at) / Fold change /veh CAPN14 (11732068_a_at) / RFU TMCC2 (11721928_a_at) / Fold change /veh TMCC2 (11721928_a_at) / RFU IRGQ (11745062_a_at) / Fold change /veh IRGQ (11745062_a_at) / RFU FAM174B (11720279_a_at) / Fold change /veh FAM174B (11720279_a_at) / RFU TMPRSS4 (11748680_a_at) / Fold change /veh TMPRSS4 (11748680_a_at) / RFU FAM212B (11763350_a_at) / Fold change /veh FAM212B (11763350_a_at) / RFU PLEKHG5 (11743358_a_at) / Fold change /veh PLEKHG5 (11743358_a_at) / RFU ZSCAN30 (11745921_a_at) / Fold change /veh ZSCAN30 (11745921_a_at) / RFU CMKLR1 (11741424_a_at) / Fold change /veh CMKLR1 (11741424_a_at) / RFU LOC101060620 /// MAPK8IP1 (11723275_at) / Fold change /veh LOC101060620 /// MAPK8IP1 (11723275_at) / RFU SPTSSB (11747773_x_at) / Fold change /veh SPTSSB (11747773_x_at) / RFU PRSS12 (11739890_at) / Fold change /veh PRSS12 (11739890_at) / RFU BIN1 (11741810_x_at) / Fold change /veh BIN1 (11741810_x_at) / RFU WNT11 (11732464_a_at) / Fold change /veh WNT11 (11732464_a_at) / RFU C10orf10 (11716521_a_at) / Fold change /veh C10orf10 (11716521_a_at) / RFU C5orf56 (11738089_at) / Fold change /veh C5orf56 (11738089_at) / RFU CYB561 (11721691_x_at) / Fold change /veh CYB561 (11721691_x_at) / RFU ANKRD19P (11752326_a_at) / Fold change /veh ANKRD19P (11752326_a_at) / RFU OR2T12 /// OR2T33 /// OR2T8 (11738714_s_at) / Fold change /veh OR2T12 /// OR2T33 /// OR2T8 (11738714_s_at) / RFU VCAN (11748164_a_at) / Fold change /veh VCAN (11748164_a_at) / RFU JSRP1 (11732532_at) / Fold change /veh JSRP1 (11732532_at) / RFU KRTAP10-11 (11738290_x_at) / Fold change /veh KRTAP10-11 (11738290_x_at) / RFU MYO3A (11730013_a_at) / Fold change /veh MYO3A (11730013_a_at) / RFU EBF3 (11725865_a_at) / Fold change /veh EBF3 (11725865_a_at) / RFU CAMK2N1 (11719241_x_at) / Fold change /veh CAMK2N1 (11719241_x_at) / RFU C5orf56 (11738088_a_at) / Fold change /veh C5orf56 (11738088_a_at) / RFU OLFML3 (11715873_a_at) / Fold change /veh OLFML3 (11715873_a_at) / RFU LOC100653217 /// NTM (11731650_a_at) / Fold change /veh LOC100653217 /// NTM (11731650_a_at) / RFU MAPK11 (11762145_a_at) / Fold change /veh MAPK11 (11762145_a_at) / RFU FIZ1 (11724087_x_at) / Fold change /veh FIZ1 (11724087_x_at) / RFU OASL (11726364_x_at) / Fold change /veh OASL (11726364_x_at) / RFU SOX15 (11748057_x_at) / Fold change /veh SOX15 (11748057_x_at) / RFU CD79A (11719716_a_at) / Fold change /veh CD79A (11719716_a_at) / RFU HIST1H1D (11736915_at) / Fold change /veh HIST1H1D (11736915_at) / RFU CASKIN2 (11723855_a_at) / Fold change /veh CASKIN2 (11723855_a_at) / RFU LOC730098 (11760151_x_at) / Fold change /veh LOC730098 (11760151_x_at) / RFU OR4N2 (11742367_at) / Fold change /veh OR4N2 (11742367_at) / RFU PRRT2 (11749266_a_at) / Fold change /veh PRRT2 (11749266_a_at) / RFU SNX32 (11753110_a_at) / Fold change /veh SNX32 (11753110_a_at) / RFU CDHR5 (11726645_a_at) / Fold change /veh CDHR5 (11726645_a_at) / RFU RCAN1 (11760418_a_at) / Fold change /veh RCAN1 (11760418_a_at) / RFU FAM167A (11723789_a_at) / Fold change /veh FAM167A (11723789_a_at) / RFU FAM26E (11764081_at) / Fold change /veh FAM26E (11764081_at) / RFU ISYNA1 (11749810_s_at) / Fold change /veh ISYNA1 (11749810_s_at) / RFU ACY1 (11761880_at) / Fold change /veh ACY1 (11761880_at) / RFU 11764098_at / Fold change /veh 11764098_at / RFU SAMD14 (11745864_x_at) / Fold change /veh SAMD14 (11745864_x_at) / RFU NPB (11741838_a_at) / Fold change /veh NPB (11741838_a_at) / RFU TMPRSS6 (11731388_a_at) / Fold change /veh TMPRSS6 (11731388_a_at) / RFU KRTAP10-2 (11738614_at) / Fold change /veh KRTAP10-2 (11738614_at) / RFU ARHGAP8 /// PRR5-ARHGAP8 (11727945_x_at) / Fold change /veh ARHGAP8 /// PRR5-ARHGAP8 (11727945_x_at) / RFU KRTAP5-7 /// NADSYN1 (11734609_at) / Fold change /veh KRTAP5-7 /// NADSYN1 (11734609_at) / RFU RASL12 (11751679_a_at) / Fold change /veh RASL12 (11751679_a_at) / RFU CDKN2B (11736163_a_at) / Fold change /veh CDKN2B (11736163_a_at) / RFU PRF1 (11729649_at) / Fold change /veh PRF1 (11729649_at) / RFU, ZNF638 /// ZNF638-IT1 / Fold change vs veh, ZNF638 /// ZNF638-IT1 / RFU, PANK3 / Fold change vs veh, PANK3 / RFU, SH3YL1 / Fold change vs veh, SH3YL1 / RFU, ZEB2 / Fold change vs veh, ZEB2 / RFU, NRIP1 / Fold change vs veh, NRIP1 / RFU, PTTG1IP / Fold change vs veh, PTTG1IP / RFU, CAPN2 / Fold change vs veh, CAPN2 / RFU, MED14 / Fold change vs veh, MED14 / RFU, SNORA58 / Fold change vs veh, SNORA58 / RFU, C1orf63 / Fold change vs veh, C1orf63 / RFU, LRRFIP1 / Fold change vs veh, LRRFIP1 / RFU, NDUFAF7 / Fold change vs veh, NDUFAF7 / RFU, SLC12A2 / Fold change vs veh, SLC12A2 / RFU, IBTK / Fold change vs veh, IBTK / RFU, ESF1 / Fold change vs veh, ESF1 / Fold change vs veh, TMEM50B / RFU, TAOK1 / Fold change vs veh, TAOK1 / RFU, ACBD3 / Fold change vs veh, ACBD3 / RFU, TMA16 / Fold change vs veh, TMA16 / RFU, RWDD3 / Fold change vs veh, RWDD3 / RFU, BCAT1 / Fold change vs veh, BCAT1 / RFU, EDEM3 / Fold change vs veh, EDEM3 / RFU, TMEM33 / Fold change vs veh, TMEM33 / RFU, WDR75 / Fold change vs veh, WDR75 / RFU, AHCTF1 / Fold change vs veh, AHCTF1 / RFU, TFRC / Fold change vs veh, TFRC / RFU, ZDHHC17 / Fold change vs veh, ZDHHC17 / RFU, NOM1 / Fold change vs veh, NOM1 / RFU, ARL8B / Fold change vs veh, ARL8B / RFU, ZBTB11 / Fold change vs veh, ZBTB11 / RFU, TAMM41 / Fold change vs veh, TAMM41 / RFU, KIAA1704 /// LOC100996395 / Fold change vs veh, KIAA1704 /// LOC100996395 / RFU, ING1 / Fold change vs veh, ING1 / RFU, TRMT61B / Fold change vs veh, TRMT61B / RFU, FUBP3 / Fold change vs veh, FUBP3 / RFU, TP53 / Fold change vs veh, TP53 / RFU, TNKS2 / Fold change vs veh, TNKS2 / RFU, ZFP14 / Fold change vs veh, ZFP14 / RFU, ACTR2 / Fold change vs veh, ACTR2 / RFU, PPP3R1 / Fold change vs veh, PPP3R1 / RFU, PIK3R1 / Fold change vs veh, PIK3R1 / RFU, HNRNPA1 / Fold change vs veh, HNRNPA1 / RFU, RNF170 / Fold change vs veh, RNF170 / RFU, ZNF28 / Fold change vs veh, ZNF28 / RFU, RNGTT / Fold change vs veh, RNGTT / RFU, OGT / Fold change vs veh, OGT / RFU, BRD1 / Fold change vs veh, BRD1 / RFU, MARS / Fold change vs veh, MARS / RFU, ZNF655 / Fold change vs veh, ZNF655 / RFU, FAHD1 / Fold change vs veh, FAHD1 / RFU, BDP1 / Fold change vs veh, BDP1 / RFU, LRRCC1 / Fold change vs veh, LRRCC1 / RFU, ARID1A / Fold change vs veh, ARID1A / RFU, ZNF146 / Fold change vs veh, ZNF146 / RFU, ZNF330 / Fold change vs veh, ZNF330 / RFU, GPN3 / Fold change vs veh, GPN3 / RFU, C9orf123 / Fold change vs veh, C9orf123 / RFU, N4BP2L2 / Fold change vs veh, N4BP2L2 / RFU, ARFIP1 / Fold change vs veh, ARFIP1 / RFU, FAM179B / Fold change vs veh, FAM179B / RFU, BCL10 / Fold change vs veh, BCL10 / RFU, UHRF1BP1L / Fold change vs veh, UHRF1BP1L / RFU, BET1 / Fold change vs veh, BET1 / RFU, CNOT2 / Fold change vs veh, CNOT2 / RFU, ZNF268 / Fold change vs veh, ZNF268 / Fold change vs veh, ZNF507 / RFU, DGCR2 / Fold change vs veh, DGCR2 / RFU, WDSUB1 / Fold change vs veh, WDSUB1 / Fold change vs veh, HSP90B1 /// MIR3652 / RFU, ADSS / Fold change vs veh, ADSS / RFU, GK / Fold change vs veh, GK / RFU, ZNF148 / Fold change vs veh, ZNF148 / RFU, TAF9 / Fold change vs veh, TAF9 / RFU, SLC1A5 / Fold change vs veh, SLC1A5 / RFU, SLMO2 / Fold change vs veh, SLMO2 / RFU, ABCC4 / Fold change vs veh, ABCC4 / RFU, LOC101060439 /// RAP1B / Fold change vs veh, LOC101060439 /// RAP1B / RFU, RFX7 / Fold change vs veh, RFX7 / RFU, GTPBP10 / Fold change vs veh, GTPBP10 / RFU, CNEP1R1 / Fold change vs veh, CNEP1R1 / RFU, BIVM-ERCC5 /// ERCC5 / Fold change vs veh, BIVM-ERCC5 /// ERCC5 / RFU, ILF3 / Fold change vs veh, ILF3 / RFU 11762660_at / Fold change /veh 11762660_at / RFU VCAN (11757783_s_at) / Fold change /veh VCAN (11757783_s_at) / RFU DDX43 (11728927_at) / Fold change /veh DDX43 (11728927_at) / RFU KRT8 (11758188_x_at) / Fold change /veh KRT8 (11758188_x_at) / RFU NKD1 (11759106_at) / Fold change /veh NKD1 (11759106_at) / RFU SRD5A1 (11742802_a_at) / Fold change /veh SRD5A1 (11742802_a_at) / RFU TPSAB1 /// TPSB2 (11721975_s_at) / Fold change /veh TPSAB1 /// TPSB2 (11721975_s_at) / RFU GSTM3 (11746129_a_at) / Fold change /veh GSTM3 (11746129_a_at) / RFU IL23R (11737362_x_at) / Fold change /veh IL23R (11737362_x_at) / RFU TMEM51 (11727254_a_at) / Fold change /veh TMEM51 (11727254_a_at) / RFU PIWIL2 (11732686_x_at) / Fold change /veh PIWIL2 (11732686_x_at) / RFU ORM1 (11744905_x_at) / Fold change /veh ORM1 (11744905_x_at) / RFU CCDC152 (11743942_at) / Fold change /veh CCDC152 (11743942_at) / RFU ECM1 (11717891_a_at) / Fold change /veh ECM1 (11717891_a_at) / RFU IL23R (11748794_a_at) / Fold change /veh IL23R (11748794_a_at) / RFU TNFAIP8L3 (11732012_x_at) / Fold change /veh TNFAIP8L3 (11732012_x_at) / RFU MBOAT4 (11741988_at) / Fold change /veh MBOAT4 (11741988_at) / RFU 11764193_at / Fold change /veh 11764193_at / RFU TMEM53 (11763286_at) / Fold change /veh TMEM53 (11763286_at) / RFU MAGEB2 (11727129_at) / Fold change /veh MAGEB2 (11727129_at) / RFU TMEM200A (11744735_a_at) / Fold change /veh TMEM200A (11744735_a_at) / RFU CCDC152 (11751479_a_at) / Fold change /veh CCDC152 (11751479_a_at) / RFU FAM211A (11726209_a_at) / Fold change /veh FAM211A (11726209_a_at) / RFU RGS16 (11746705_a_at) / Fold change /veh RGS16 (11746705_a_at) / RFU VCAN (11755009_s_at) / Fold change /veh VCAN (11755009_s_at) / RFU RHOB (11743442_s_at) / Fold change /veh RHOB (11743442_s_at) / RFU RGS16 (11720943_a_at) / Fold change /veh RGS16 (11720943_a_at) / RFU RGS16 (11720944_at) / Fold change /veh RGS16 (11720944_at) / RFU, VPS4B / Fold change vs veh, VPS4B / RFU, CREB1 / Fold change vs veh, CREB1 / RFU, DNAJC13 / Fold change vs veh, DNAJC13 / RFU, GNAQ / Fold change vs veh, GNAQ / RFU, CDK5R1 / Fold change vs veh, CDK5R1 / RFU, ZRANB3 / Fold change vs veh, ZRANB3 / RFU, CUL4A / Fold change vs veh, CUL4A / RFU, CCNY / Fold change vs veh, CCNY / RFU, UFL1 / Fold change vs veh, UFL1 / RFU, COG3 / Fold change vs veh, COG3 / RFU, DIAPH2 / Fold change vs veh, DIAPH2 / RFU, SKA2 / Fold change vs veh, SKA2 / RFU, AFF3 / Fold change vs veh, AFF3 / RFU, LMF1 / Fold change vs veh, LMF1 / RFU, IPO11 / Fold change vs veh, IPO11 / RFU, DFFB / Fold change vs veh, DFFB / RFU, FOXP1 / Fold change vs veh, FOXP1 / RFU, CARD8 / Fold change vs veh, CARD8 / RFU, STRN3 / Fold change vs veh, STRN3 / RFU, ADK / Fold change vs veh, ADK / RFU, RASSF2 / Fold change vs veh, RASSF2 / RFU, WIPF1 / Fold change vs veh, WIPF1 / RFU, LARP1B / Fold change vs veh, LARP1B / RFU, RASA1 / Fold change vs veh, RASA1 / RFU, RB1 / Fold change vs veh, RB1 / RFU, PPFIA1 / Fold change vs veh, PPFIA1 / RFU, MAT2A / Fold change vs veh, MAT2A / RFU, CCT5 / Fold change vs veh, CCT5 / RFU, WDR92 / Fold change vs veh, WDR92 / RFU, CUX1 / Fold change vs veh, CUX1 / RFU, TTC7A / Fold change vs veh, TTC7A / RFU, TMEM135 / Fold change vs veh, TMEM135 / RFU, DEPTOR / Fold change vs veh, DEPTOR / RFU, CPM / Fold change vs veh, CPM / RFU, DNAJB6 / Fold change vs veh, DNAJB6 / RFU, CACNA2D3 / Fold change vs veh, CACNA2D3 / RFU, DTX4 / Fold change vs veh, DTX4 / RFU, TFCP2 / Fold change vs veh, TFCP2 / RFU, GMCL1 /// GMCL1P1 / Fold change vs veh, GMCL1 /// GMCL1P1 / RFU, AEBP2 / Fold change vs veh, AEBP2 / RFU, SNHG1 /// SNORD22 /// SNORD25 /// SNORD26 /// SNORD27 /// SNORD28 /// SNORD29 /// SNORD31 / Fold change vs veh, SNHG1 /// SNORD22 /// SNORD25 /// SNORD26 /// SNORD27 /// SNORD28 /// SNORD29 /// SNORD31 / Fold change (Aza/veh), C12orf56 (ProbeSet 11735607_a_at) / Fold change (ACY-1035/veh), C12orf56 (ProbeSet 11735607_a_at) / Fold change (Aza/veh), FGFR1OP (ProbeSet 11751329_s_at) / Fold change (ACY-1035/veh), FGFR1OP (ProbeSet 11751329_s_at) / Fold change (Aza/veh), VPS36 (ProbeSet 11739960_a_at) / Fold change (ACY-1035/veh), VPS36 (ProbeSet 11739960_a_at) / RFU SYPL1 (11715823_x_at) / Fold change /veh SYPL1 (11715823_x_at) / RFU IGFBP7 (11715501_s_at) / Fold change /veh IGFBP7 (11715501_s_at) / RFU REEP3 (11722064_at) / Fold change /veh REEP3 (11722064_at) / RFU IGLL1 (11728026_x_at) / Fold change /veh IGLL1 (11728026_x_at): dose or concentration left out as unconfirmed
Details: MV-4-11 cells, 48 hours

Compound: Nc1ncn([C@@H]2O[C@H](CO)[C@@H](O)[C@H]2O)c(=O)n1 [azacitidine]
- Fold change /veh KRT8 (11758188_x_at): 1.26
